Each structure is given as a SMILES string. pIC50: −log10 of the molar value. Counter-ions that a name gives are not always drawn. Like-named read-outs stand apart in the source and are kept apart here.

Holding throughout (assay type): biochemical
One experiment concerns the target JAK3 (Homo sapiens (Human), UniProt P52333). Nature of the experiment: JAK3 Inhibition Assay (Example D, Omnia kinase fluorescence peptide substrate assay). In a few lines:
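Omnia Sox-peptide kinetic read (ex 360 nm, em 485 nm, every 50 s over 45 min) tracked phosphorylation of 10 μM Y7 peptide by 2 nM recombinant JAK3 at 1 mM ATP. Buffer: 25 mM HEPES pH 7.4, 10 mM MgCl2, 0.01% Triton X-100, 1 mM DTT, with 2% DMSO final.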

In another experiment the target is Human Tyk2 kinase domain (Homo sapiens (Human), UniProt P29597). Description: Tyk2 Inhibition Assay (Example A, Omnia kinase fluorescence peptide substrate assay). The settings on record: TYK2 Enzyme IC50 1 mM ATP, averaged IC50 ranges. An outline of the steps: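 IC50 values come from a 4-parameter logistic fit of percent-of-control data, with compounds at 2% final DMSO. Reactions held 1 nM His-tag-cleaved Tyk2 (aa 886–1187), 8 μM Omnia Y12 peptide and 1 mM ATP in pH 7.4 HEPES buffer with 10 mM MgCl2, Triton X-100 and DTT. Sox fluorescence (360/485 nm) was monitored kinetically over 45 min.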

Another experiment addresses JAK1 (Homo sapiens (Human), UniProt P23458). Nature of the experiment: JAK1 Inhibition Assay (Example B, Omnia kinase fluorescence peptide substrate assay). An outline of the steps:
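Kinetic fluorescence read (360 nm excitation, 485 nm emission, every 50 s over 45 min) of Omnia Y12 peptide (8 μM) phosphorylation by 12.5 nM human JAK1 at 1 mM ATP. Buffer: HEPES pH 7.4, MgCl2, Triton X-100, DTT; 2% DMSO. IC50 = concentration giving 50 POC on logistic curve.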

A further experiment concerns the target JAK2 (Homo sapiens (Human), UniProt O60674). Nature of the experiment: JAK2 Inhibition Assay (Example C, Omnia kinase fluorescence peptide substrate assay). The settings on record: JAK2 Enzyme IC50 1 mM ATP, averaged IC50 ranges. An outline of the steps:
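Kinetic fluorescence read of Omnia Y7 peptide (10 μM) phosphorylation, ex 360/em 485 nm every 50 s over 45 min, by 4 nM JAK2 at 1 mM ATP. Buffer 25 mM HEPES pH 7.4, 10 mM MgCl2, 0.01% Triton X-100, 1 mM DTT; final DMSO 2%. Percent-of-control values fitted by 4-parameter logistic for IC50.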

The mark [1] stands for this setting: JAK1 Enzyme IC50 1 mM ATP, 1 mM ATP, averaged IC50 ranges.

Chain of Human Tyk2 kinase domain (P29597 886-1187): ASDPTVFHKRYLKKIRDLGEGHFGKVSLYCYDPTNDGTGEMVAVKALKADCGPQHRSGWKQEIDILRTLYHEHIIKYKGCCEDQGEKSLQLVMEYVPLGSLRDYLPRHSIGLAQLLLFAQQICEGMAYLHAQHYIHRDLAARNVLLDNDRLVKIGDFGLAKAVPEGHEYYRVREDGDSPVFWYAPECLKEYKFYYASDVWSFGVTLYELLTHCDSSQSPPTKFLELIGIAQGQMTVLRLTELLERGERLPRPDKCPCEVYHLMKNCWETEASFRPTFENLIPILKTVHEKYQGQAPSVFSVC
Chain of JAK2 (O60674 whole entry): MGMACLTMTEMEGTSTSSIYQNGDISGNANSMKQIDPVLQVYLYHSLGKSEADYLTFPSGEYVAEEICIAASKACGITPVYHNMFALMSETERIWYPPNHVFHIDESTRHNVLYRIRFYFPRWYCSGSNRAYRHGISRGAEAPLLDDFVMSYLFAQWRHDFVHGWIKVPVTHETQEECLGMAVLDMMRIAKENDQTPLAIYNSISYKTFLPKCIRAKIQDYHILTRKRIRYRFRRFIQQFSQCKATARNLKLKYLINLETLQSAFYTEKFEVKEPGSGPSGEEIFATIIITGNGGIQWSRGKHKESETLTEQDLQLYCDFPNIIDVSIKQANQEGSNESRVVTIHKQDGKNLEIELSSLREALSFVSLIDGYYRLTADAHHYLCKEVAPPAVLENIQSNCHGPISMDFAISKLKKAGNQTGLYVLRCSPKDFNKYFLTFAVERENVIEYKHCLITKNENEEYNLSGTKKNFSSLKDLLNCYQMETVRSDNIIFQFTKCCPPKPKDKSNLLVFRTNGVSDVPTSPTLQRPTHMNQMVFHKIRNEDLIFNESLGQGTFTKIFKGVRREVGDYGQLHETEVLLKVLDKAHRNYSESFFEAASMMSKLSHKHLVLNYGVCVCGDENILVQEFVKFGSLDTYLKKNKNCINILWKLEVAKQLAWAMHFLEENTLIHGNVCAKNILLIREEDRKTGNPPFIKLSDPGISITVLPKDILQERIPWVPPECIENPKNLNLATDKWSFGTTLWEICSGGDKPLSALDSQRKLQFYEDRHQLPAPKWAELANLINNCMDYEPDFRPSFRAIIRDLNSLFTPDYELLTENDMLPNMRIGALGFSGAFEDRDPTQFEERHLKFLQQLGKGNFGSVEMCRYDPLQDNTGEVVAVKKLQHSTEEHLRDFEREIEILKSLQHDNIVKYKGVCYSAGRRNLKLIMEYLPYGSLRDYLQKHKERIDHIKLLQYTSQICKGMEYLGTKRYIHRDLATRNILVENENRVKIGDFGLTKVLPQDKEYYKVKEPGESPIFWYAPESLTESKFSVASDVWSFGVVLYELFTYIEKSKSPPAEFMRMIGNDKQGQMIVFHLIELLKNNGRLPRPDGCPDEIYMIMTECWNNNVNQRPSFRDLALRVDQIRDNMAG
Chain of JAK3 (P52333 whole entry): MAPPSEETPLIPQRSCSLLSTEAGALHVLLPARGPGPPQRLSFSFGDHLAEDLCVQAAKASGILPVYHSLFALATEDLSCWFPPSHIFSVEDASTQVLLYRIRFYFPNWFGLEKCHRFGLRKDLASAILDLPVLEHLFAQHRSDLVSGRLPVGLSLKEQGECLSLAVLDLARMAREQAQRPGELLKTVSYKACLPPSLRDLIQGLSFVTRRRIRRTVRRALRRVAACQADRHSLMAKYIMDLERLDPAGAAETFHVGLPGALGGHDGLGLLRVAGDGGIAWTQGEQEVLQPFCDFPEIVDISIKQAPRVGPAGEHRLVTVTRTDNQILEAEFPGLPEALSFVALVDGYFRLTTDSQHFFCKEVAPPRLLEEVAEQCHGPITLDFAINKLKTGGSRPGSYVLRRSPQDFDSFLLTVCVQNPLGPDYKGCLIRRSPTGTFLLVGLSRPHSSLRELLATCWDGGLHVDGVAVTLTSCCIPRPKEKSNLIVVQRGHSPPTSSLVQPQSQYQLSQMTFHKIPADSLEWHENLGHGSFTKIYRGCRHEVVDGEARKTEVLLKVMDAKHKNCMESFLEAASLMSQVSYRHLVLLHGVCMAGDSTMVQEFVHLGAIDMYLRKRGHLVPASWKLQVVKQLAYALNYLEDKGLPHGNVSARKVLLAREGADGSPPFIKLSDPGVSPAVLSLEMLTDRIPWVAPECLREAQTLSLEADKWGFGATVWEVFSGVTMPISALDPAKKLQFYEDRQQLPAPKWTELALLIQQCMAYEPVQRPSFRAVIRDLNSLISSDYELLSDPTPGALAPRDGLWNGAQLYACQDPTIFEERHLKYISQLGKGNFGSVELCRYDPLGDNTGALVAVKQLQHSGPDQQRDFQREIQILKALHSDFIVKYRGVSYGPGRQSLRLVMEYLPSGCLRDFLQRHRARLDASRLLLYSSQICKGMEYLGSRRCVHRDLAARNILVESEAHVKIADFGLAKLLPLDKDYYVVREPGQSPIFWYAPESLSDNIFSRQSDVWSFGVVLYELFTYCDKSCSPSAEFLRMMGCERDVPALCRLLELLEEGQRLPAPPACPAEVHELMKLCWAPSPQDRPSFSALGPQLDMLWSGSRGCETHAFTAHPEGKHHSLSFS
Chain of JAK1 (P23458 whole entry): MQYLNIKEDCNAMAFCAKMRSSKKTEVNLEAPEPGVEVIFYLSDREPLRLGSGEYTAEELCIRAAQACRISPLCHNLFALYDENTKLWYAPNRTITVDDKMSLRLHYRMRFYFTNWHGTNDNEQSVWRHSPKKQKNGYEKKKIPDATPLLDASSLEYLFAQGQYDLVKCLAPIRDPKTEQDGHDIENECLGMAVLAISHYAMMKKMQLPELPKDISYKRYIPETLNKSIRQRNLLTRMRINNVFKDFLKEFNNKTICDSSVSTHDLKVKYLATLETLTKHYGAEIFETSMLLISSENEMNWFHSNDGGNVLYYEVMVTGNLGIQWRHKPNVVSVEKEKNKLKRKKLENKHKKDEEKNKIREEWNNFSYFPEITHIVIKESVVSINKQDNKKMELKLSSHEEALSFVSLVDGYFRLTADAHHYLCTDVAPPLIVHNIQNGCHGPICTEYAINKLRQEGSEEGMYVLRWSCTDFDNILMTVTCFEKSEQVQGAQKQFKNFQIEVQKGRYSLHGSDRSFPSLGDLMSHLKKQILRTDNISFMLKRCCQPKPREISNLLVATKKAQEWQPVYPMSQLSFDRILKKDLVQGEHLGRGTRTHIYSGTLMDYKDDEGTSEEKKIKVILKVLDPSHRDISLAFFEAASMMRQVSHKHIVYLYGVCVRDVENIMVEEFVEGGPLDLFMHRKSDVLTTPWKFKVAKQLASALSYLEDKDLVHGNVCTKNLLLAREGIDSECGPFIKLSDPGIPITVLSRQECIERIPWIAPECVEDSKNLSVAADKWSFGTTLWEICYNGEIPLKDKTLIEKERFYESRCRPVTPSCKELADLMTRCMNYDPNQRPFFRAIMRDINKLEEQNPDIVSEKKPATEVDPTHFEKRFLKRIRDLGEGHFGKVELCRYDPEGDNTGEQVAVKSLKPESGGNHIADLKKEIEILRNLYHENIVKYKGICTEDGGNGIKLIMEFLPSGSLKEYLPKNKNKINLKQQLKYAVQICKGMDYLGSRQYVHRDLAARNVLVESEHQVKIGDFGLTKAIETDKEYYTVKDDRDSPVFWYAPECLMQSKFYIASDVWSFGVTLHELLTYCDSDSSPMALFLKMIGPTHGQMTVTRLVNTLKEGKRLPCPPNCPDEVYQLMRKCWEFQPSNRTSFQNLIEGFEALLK

Regarding `CCC(CC)n1cc(-c2nc(-c3cnn(CC[C@H](O)CO)c3)cn3nccc23)cn1` [Example 62, (S)-4-(4-(4-(1-(pentan-3-yl)-1H-pyrazol-4-yl)pyrazolo[1,5-a]pyrazin-6-yl)-1H-pyrazol-1-yl)butane-1,2-diol], the pIC50 (commonly the negative decadic logarithm of the IC50, by convention in mol/L) on JAK3 was 5.00 to 6.00; on Human Tyk2 kinase domain, 7.00 to 8.00; against JAK1 (setting [1]) it was 6.00 to 7.00; at JAK2, 7.00 to 8.00.
With `CCC(CC)n1cc(-c2nc(-c3cnn(CC(O)CCO)c3)cn3nccc23)cn1` (centres unmarked) [Example 63, 4-(4-(4-(1-(pentan-3-yl)-1H-pyrazol-4-yl)pyrazolo[1,5-a]pyrazin-6-yl)-1H-pyrazol-1-yl)butane-1,3-diol], the pIC50 on JAK3 was 5.00 to 6.00; on Human Tyk2 kinase domain, 7.00 to 8.00; at JAK1, 6.00 to 7.00; against JAK2 it was 7.00 to 8.00.
`CCC(CC)n1cc(-c2nc(-c3cnn(CC[C@@H](O)CO)c3)cn3nccc23)cn1` [Example 64, (R)-4-(4-(4-(1-(pentan-3-yl)-1H-pyrazol-4-yl)pyrazolo[1,5-a]pyrazin-6-yl)-1H-pyrazol-1-yl)butane-1,2-diol]: the negative logarithm of the IC50 (pIC50) at JAK3 was 5.00 to 6.00; at Human Tyk2 kinase domain, 7.00 to 8.00; at JAK1 (setting [1]) it was 6.00 to 7.00; on JAK2, 7.00 to 8.00.
In the case of `CCC(CC)n1cc(-c2nc(-c3cnn(C[C@H](O)[C@H](C)O)c3)cn3nccc23)cn1` [Example 65, (2S,3S)-1-(4-(4-(1-(pentan-3-yl)-1H-pyrazol-4-yl)pyrazolo[1,5-a]pyrazin-6-yl)-1H-pyrazol-1-yl)butane-2,3-diol], the negative-log IC50 (pIC50) against JAK3 is 5.00 to 6.00; at Human Tyk2 kinase domain, 7.00 to 8.00; against JAK1 (setting [1]) it was 6.00 to 7.00; against JAK2, 7.00 to 8.00.
Take `CCC(c1ccccc1)n1cc(-c2nc(-c3cnn(C[C@@H](O)CO)c3)cn3nccc23)cn1` (stereo partly drawn) [Example 66, (2R)-3-(4-(4-(1-(1-phenylpropyl)-1H-pyrazol-4-yl)pyrazolo[1,5-a]pyrazin-6-yl)-1H-pyrazol-1-yl)propane-1,2-diol]: the pIC50 against JAK3 was 6.00 to 7.00; on Human Tyk2 kinase domain, 7.00 to 8.00; at JAK1 (setting [1]), 7.00 to 8.00; against JAK2, 7.00 to 8.00.
On to `CCC(C)n1cc(-c2nc(-c3cnn(C[C@@H](O)CO)c3)cn3nccc23)cn1` (stereo partly drawn) [Example 67, (2R)-3-(4-(4-(1-(sec-butyl)-1H-pyrazol-4-yl)pyrazolo[1,5-a]pyrazin-6-yl)-1H-pyrazol-1-yl)propane-1,2-diol], for which the pIC50 at JAK3 is 6.00 to 7.00; against Human Tyk2 kinase domain it was 6.00 to 7.00; against JAK1 (setting [1]) it was 6.00 to 7.00; against JAK2, 7.00 to 8.00.
Take `CC[C@H](C)n1cc(-c2nc(-c3cnn(C[C@@H](O)CO)c3)cn3nccc23)cn1` [Example 68, (R)-3-(4-(4-(1-((S)-sec-butyl)-1H-pyrazol-4-yl)pyrazolo[1,5-a]pyrazin-6-yl)-1H-pyrazol-1-yl)propane-1,2-diol]: the pIC50 on JAK3 is 5.00 to 6.00; at Human Tyk2 kinase domain, 7.00 to 8.00; on JAK1 (setting [1]), 6.00 to 7.00; at JAK2, 7.00 to 8.00.
On to `CC[C@@H](C)n1cc(-c2nc(-c3cnn(C[C@@H](O)CO)c3)cn3nccc23)cn1` [Example 69, (R)-3-(4-(4-(1-((R)-sec-butyl)-1H-pyrazol-4-yl)pyrazolo[1,5-a]pyrazin-6-yl)-1H-pyrazol-1-yl)propane-1,2-diol], for which the pIC50 on JAK3 is 5.00 to 6.00; on Human Tyk2 kinase domain it was 6.00 to 7.00; against JAK1 (setting [1]), 5.00 to 6.00; against JAK2 it was 6.00 to 7.00.
For the molecule `CC[C@H](C)n1cc(-c2nc(-c3cnn(C[C@H](O)CO)c3)cn3nccc23)cn1` [Example 70, (S)-3-(4-(4-(1-((S)-sec-butyl)-1H-pyrazol-4-yl)pyrazolo[1,5-a]pyrazin-6-yl)-1H-pyrazol-1-yl)propane-1,2-diol hydrochloride], the negative logarithm of the IC50 (pIC50) was 5.00 to 6.00 on JAK3, 7.00 to 8.00 against Human Tyk2 kinase domain, 6.00 to 7.00 at JAK1 and 7.00 to 8.00 on JAK2.
Turning to `CC[C@@H](C)n1cc(-c2nc(-c3cnn(C[C@H](O)CO)c3)cn3nccc23)cn1` [Example 71, (S)-3-(4-(4-(1-((R)-sec-butyl)-1H-pyrazol-4-yl)pyrazolo[1,5-a]pyrazin-6-yl)-1H-pyrazol-1-yl)propane-1,2-diol], the negative logarithm of the IC50 (pIC50) is 5.00 to 6.00 on JAK3, 6.00 to 7.00 against Human Tyk2 kinase domain, 5.00 to 6.00 against JAK1 (setting [1]) and 6.00 to 7.00 against JAK2.
As for `CCC[C@H](C)n1cc(-c2nc(-c3cnn(C[C@@H](O)CO)c3)cn3nccc23)cn1` [Example 72, (R)-3-(4-(4-(1-((S)-pentan-2-yl)-1H-pyrazol-4-yl)pyrazolo[1,5-a]pyrazin-6-yl)-1H-pyrazol-1-yl)propane-1,2-diol], the negative-log IC50 (pIC50) on JAK3 was 5.00 to 6.00; against Human Tyk2 kinase domain it was 6.00 to 7.00; on JAK1 (setting [1]) it was 6.00 to 7.00; at JAK2, 6.00 to 7.00.
In the case of `CCC[C@@H](C)n1cc(-c2nc(-c3cnn(C[C@@H](O)CO)c3)cn3nccc23)cn1` [Example 73, (R)-3-(4-(4-(1-((R)-pentan-2-yl)-1H-pyrazol-4-yl)pyrazolo[1,5-a]pyrazin-6-yl)-1H-pyrazol-1-yl)propane-1,2-diol], the pIC50 on JAK3 was 5.00 to 6.00; on Human Tyk2 kinase domain, 7.00 to 8.00; against JAK1 (setting [1]), 5.00 to 6.00; at JAK2 it was 7.00 to 8.00.
Take `CCC[C@@H](C)n1cc(-c2nc(-c3cnn(C[C@H](O)CO)c3)cn3nccc23)cn1` [Example 74, (S)-3-(4-(4-(1-((R)-pentan-2-yl)-1H-pyrazol-4-yl)pyrazolo[1,5-a]pyrazin-6-yl)-1H-pyrazol-1-yl)propane-1,2-diol]: the pIC50 against JAK3 was 5.00 to 6.00; against Human Tyk2 kinase domain, 7.00 to 8.00; at JAK1 (setting [1]), 5.00 to 6.00; against JAK2, 6.00 to 7.00.
For `CC(C)C[C@H](C)n1cc(-c2nc(-c3cnn(C[C@@H](O)CO)c3)cn3nccc23)cn1` [Example 75, (R)-3-(4-(4-(1-((S)-4-methylpentan-2-yl)-1H-pyrazol-4-yl)pyrazolo[1,5-a]pyrazin-6-yl)-1H-pyrazol-1-yl)propane-1,2-diol], the pIC50 was 5.00 to 6.00 at JAK3, 6.00 to 7.00 against Human Tyk2 kinase domain, 5.00 to 6.00 at JAK1 (setting [1]) and 6.00 to 7.00 against JAK2.
`CC(C)C[C@H](C)n1cc(-c2nc(-c3cnn(C[C@H](O)CO)c3)cn3nccc23)cn1` [Example 76, (S)-3-(4-(4-(1-((S)-4-methylpentan-2-yl)-1H-pyrazol-4-yl)pyrazolo[1,5-a]pyrazin-6-yl)-1H-pyrazol-1-yl)propane-1,2-diol]: the negative logarithm of the IC50 (pIC50) at JAK3 was 5.00 to 6.00; against Human Tyk2 kinase domain, 6.00 to 7.00; against JAK1 (setting [1]) it was 5.00 to 6.00; against JAK2, 6.00 to 7.00.
In the case of `CC(C)C[C@@H](C)n1cc(-c2nc(-c3cnn(C[C@@H](O)CO)c3)cn3nccc23)cn1` [Example 77, (R)-3-(4-(4-(1-((R)-4-methylpentan-2-yl)-1H-pyrazol-4-yl)pyrazolo[1,5-a]pyrazin-6-yl)-1H-pyrazol-1-yl)propane-1,2-diol], the pIC50 on JAK3 was 5.00 to 6.00; on Human Tyk2 kinase domain it was 6.00 to 7.00; against JAK1 (setting [1]), 5.00 to 6.00; against JAK2, 6.00 to 7.00.
For `CC(C)C[C@@H](C)n1cc(-c2nc(-c3cnn(C[C@H](O)CO)c3)cn3nccc23)cn1` [Example 78, (S)-3-(4-(4-(1-((R)-4-methylpentan-2-yl)-1H-pyrazol-4-yl)pyrazolo[1,5-a]pyrazin-6-yl)-1H-pyrazol-1-yl)propane-1,2-diol], the pIC50 at JAK3 was 5.00 to 6.00; against Human Tyk2 kinase domain, 6.00 to 7.00; against JAK1 (setting [1]), 5.00 to 6.00; against JAK2, 6.00 to 7.00.
For `CCC(C1CC(F)(F)C1)n1cc(-c2nc(-c3cnn(C[C@@H](O)CO)c3)cn3nccc23)cn1` (stereo partly drawn) [Example 79, (2R)-3-(4-(4-(1-(1-(3,3-difluorocyclobutyl)propyl)-1H-pyrazol-4-yl)pyrazolo[1,5-a]pyrazin-6-yl)-1H-pyrazol-1-yl)propane-1,2-diol], the negative logarithm of the IC50 (pIC50) on JAK3 was 5.00 to 6.00; against Human Tyk2 kinase domain it was 7.00 to 8.00; on JAK1, 7.00 to 8.00; against JAK2, 7.00 to 8.00.
`CCC(CC)n1cc(-c2nc(-c3cnn(C(CO)CO)c3)cn3nccc23)cn1` [Example 81, 2-(4-(4-(1-(pentan-3-yl)-1H-pyrazol-4-yl)pyrazolo[1,5-a]pyrazin-6-yl)-1H-pyrazol-1-yl)propane-1,3-diol]: the negative logarithm of the IC50 (pIC50) was 5.00 to 6.00 against JAK3, 7.00 to 8.00 on Human Tyk2 kinase domain, 6.00 to 7.00 at JAK1 and 7.00 to 8.00 against JAK2.
For `CCC[C@H](C)n1cc(-c2nc(-c3cnn(C(CO)CO)c3)cn3nccc23)cn1` [Example 82, (S)-2-(4-(4-(1-(pentan-2-yl)-1H-pyrazol-4-yl)pyrazolo[1,5-a]pyrazin-6-yl)-1H-pyrazol-1-yl)propane-1,3-diol], the pIC50 at JAK3 is 5.00 to 6.00; on Human Tyk2 kinase domain it was 6.00 to 7.00; at JAK1 it was 6.00 to 7.00; at JAK2, 7.00 to 8.00.

The values above are taken from patent US10189845B2, “4,6-substituted-pyrazolo[1,5-a]pyrazines as janus kinase inhibitors” (ARRAY BIOPHARMA INC., priority 2014, dated 2019).
